Assay results published in patent US20250177392A1, “BROAD SPECTRUM INHIBITORS OF CYTOMEGALOVIRUS” (MICROBIOTIX, INC., priority 2022, published 2025).

What was measured:
Assay type in all cases: cell-based, Human cytomegalovirus
AD169^R (IE1 expression) = test: Western blot (immunoblot) of IE1 expression in AD169^R-infected cells
Experimental: The molecular weight markers and respective proteins are indicated.
FIGS. 12A and B are Western Blot assays showing that MBXC-4336 limits expression of IE1 in fibroblasts and epithelial cells. Total cell lysates from AD169^R-infected (MOI 0.2) NHDF (A) and ARPE-19 (B) cells pre-treated with DMSO, MBX-4336 (0, 1, 5, 10, or 20 μM), or heparin (50 μg/mL) collected at 48 hpi were subjected to Western blot analysis using a rabbit anti-IE-1 antibody (lanes 1-7) and an anti-GAPDH antibody (lanes 8-14) as a loading control. The molecular weight markers and respective proteins are indicated.
Total cell lysates from virus infected NHDF cells treated with compounds were created through SDS-lysis (10^4/100 uL of 1% SDS) of at least three rounds of heating at 95° C. for 3 min and vigorous agitation. The total cell lysates were resolved using an SDS-polyacrylamide gel (12.5%), transferred to a PVDF membrane using a semi-dry apparatus. The membrane was then incubated with 1% BSA/PBS for 1 hr at room temperature followed by incubation with anti-IE1 and anti-GAPDH. Finally, the respective secondary antibody conjugated with HRP was incubated with membrane followed by detection using ECL reagents (Millipore).
Next, inhibition of the expression of IE1 in AD169^R-infected cells treated with MBX-4992 was examined by immunoblot analysis (FIG. 4E). […] Collectively, these findings further indicate that MBX-4992 effectively prevents the expression of the immediate-early genes during a CMV infection.

AD169^R CMV virus [1] = test: Plaque reduction (dissemination) assay, prophylactic treatment
Experimental: (§1) FIG. 8A-H are fluorescence images (A & B) and graphs showing that NAPA compounds MBX-4992 and MBXC-4336 work in both prophylactic and therapeutic settings to inhibit HCMV infection. ARPE-19 cells (A to D) and NHDF cells (E and F) treated with increasing concentrations (0, 1, 5, 20, and 50 μM) of MBX-4992, MBXC-4336, or ganciclovir (2.5 μM) were infected with AD169^R (MOI 0.025) and analyzed for viral plaques of >5,000 μm^2 (C and E) and >10,000 μm^2 (D and F) based on GFP fluorescence. The representative images of plaques from AD169^R-infected ARPE-19 cells treated MBX-4992, MBXC-4336, ganciclovir are shown (A and B). MBX-4992, MBXC-4336 (G and H), and ganciclovir treatment at 48 hpi of AD169^R-infected ARPE-19 cells (MOI 0.025) were analyzed for virus plaques >5,000 μm^2 and >10,000 μm^2 at 10 dpi. The normalized plaque number was designated to be 100 based on plaques from DMSO treated cells. Statistical tests were performed using ordinary one-way ANOVA with multiple comparisons to DMSO treated cells as a control and a Dunnett's post-test; *, p<0.05; **, p<0.01; ***, p<0.001; ****, p<0.0001.
For the prophylactic treatment analysis, the plaque assay was performed on ARPE-19 and NHDF cells (4×10^4) in a 24-well plate. The cells were pretreated for 1 hour with either MBX-4992 or MBXC-4336 (1-50 μM), DMSO, or ganciclovir (2.5 μM) and followed by virus infection with AD169^R. Following a 2-hour incubation at 37° C., the inoculum was removed and cells were overlaid with 1% low melt sea agarose. Upon solidification of the agarose, MBX-4992, MBXC-4336, DMSO, or ganciclovir in media was added at the indicated concentration. The drugs were replaced every 3 days. The cells were examined using Brightfield and GFP fluorescence to quantify the number and size of virus plaques using a Celigo Cytometer at 10 dpi.
To address whether NAPA compounds can limit virus dissemination in epithelial cells, we analyzed the inhibitory properties of MBX-4992 and MBXC-4336 using a plaque reduction assay by designating a cluster of virus infected cells as a virus plaque (Parsons et al., Antivir. Res., 193:105124 (2021)) The results are shown in FIG. 8A-H.
To evaluate the prophylactic function of the NAPA compounds, ARPE-19 cells and NHDF cells treated with DMSO, MBX-4992, MBXC-4336 (0-50 μM), or ganciclovir (2.5 μM) were infected with AD169^R CMV virus and analyzed for virus plaques at 10 dpi based on GFP fluorescence (FIG. 8A-F). A cluster of virus infected cells was designated a viral plaque based on an average cluster area of 5,000 μm^2 or 10,000 μm^2 (FIG. 8A-B) using a Celigo cytometer.

AD169^R CMV virus [2] = test: Plaque reduction assay, therapeutic treatment at 48 hpi; details: Human betaherpesvirus 5, AD169, ARPE-19, read-out: IC50 of plaque reduction (>5,000 μm^2 and >10,000 μm^2)
Experimental: as §1
For therapeutic treatment, ARPE-19 cells (4×10^4) were plated in a 24-well plate. […] The cells were examined using brightfield and YFP fluorescence to quantify the number and plaques using the Celigo Cytometer at 14. […]

[3] = Human betaherpesvirus 5, AD169, ARPE-19, read-out: IC50 of virus plaque reduction
[4] = Human betaherpesvirus 5, AD169, Fibroblast, read-out: IC50 of virus plaque reduction

In the case of `Cc1nc(Nc2ccc(NC(=O)c3ccco3)cc2)cc(N2CCCC2)n1` [MBX-4992], the “IE1 expression by immunoblot” value (AD169^R (IE1 expression); NHDF cells, 24 hpi, MBX-4992 1-10 μM, ganciclovir 5 μM, convallotoxin 0.01 μM) is reported as “concentration dependent decrease in IE1 expression”, the IC50 (AD169^R CMV virus [1]; [3]) is reported as 6.5 µM and the IC50 (AD169^R CMV virus [1]; [4]) is reported as 12 µM. For the same compound, the IC50 (AD169^R CMV virus [2]) was about 9 µM.

With `Cc1nc(Nc2cccc(NC(=O)c3ccco3)c2)cc(N2CCCCC2)n1` [MBXC-4336] the “IE1 expression by immunoblot” value (AD169^R (IE1 expression); NHDF and ARPE-19 cells, 48 hpi (FIG. 12)) was “effectiveness of MBXC-4336 was validated”, the IC50 (AD169^R CMV virus [1]; [3]) was 1.7 µM and the IC50 (AD169^R CMV virus [1]; [4]) was 4 µM. It also gave an IC50 (AD169^R CMV virus [2]) of about 9 µM.
